Broadly, the Km is the concentration of substrate that gives half-maximal velocity. What is called kcat is the maximal rate divided by the concentration of active sites. One may read the kcat/Km as the turnover number divided by the Michaelis constant. By stoichiometry N is commonly meant a count of units in the complex or per binding partner.

For data set [1], the target named is T1, SthA (UdhA), soluble pyridine nucleotide transhydrogenase (Escherichia coli, UniProt P27306). As to the kind of experiment: thioNADPH formation at […] nm, substrate-inhibition fit. In kind it is biochemical. Conditions: 50 mM Tris pH 7.5, 30 °C.
Data set [2] concerns the target T1, SthA (UdhA), soluble pyridine nucleotide transhydrogenase. As to the kind of experiment: thioNADPH formation rate at […] nm. Format: biochemical. Conditions: activator; 1.0 mM NADH, 0.15 mM thioNADP+, 50 mM Tris pH 7.5, 30 °C.
Data set [3] shares this target. As to the kind of experiment: absorbance spectrum of purified holoenzyme (A280/[…]). Conditions: bound prosthetic group copurified; 20 μM FAD in lysis buffer. Format: binding.
Data set [4] concerns the target SthA (UdhA), soluble pyridine nucleotide transhydrogenase (Escherichia coli, UniProt P27306, T50C). As to the kind of experiment: stopped-flow flavin reduction at […] nm, kobs vs NADH. Conditions: apparent; reductive half-reaction, anaerobic, 25 °C, no NADP+; 50 mM Tris pH 7.5. Format: biochemical.
Data set [5] concerns the target SthA (UdhA), soluble pyridine nucleotide transhydrogenase (Escherichia coli, UniProt P27306, C45A). The data set is described as above. Conditions: apparent; reductive half-reaction, anaerobic, 25 °C, no NADP+; 50 mM Tris pH 7.5. In kind it is biochemical.
The target in data set [6] is T1, SthA (UdhA), soluble pyridine nucleotide transhydrogenase. Described as above. In kind it is biochemical. Conditions: apparent; reductive half-reaction, anaerobic, 25 °C, no NADP+; 50 mM Tris pH 7.5.
Substrate in data set [7]: NC(=S)c1ccc[n+]([C@@H]2O[C@H](COP(=O)(O)OP(=O)(O)OC[C@H]3O[C@@H](n4cnc5c(N)ncnc54)[C@H](OP(=O)(O)O)[C@@H]3O)[C@@H](O)[C@H]2O)c1
As to the kind of experiment: purified protein. Format: biochemical, Escherichia coli. Conditions: transhydrogenase reaction, 10.0 mM NADH, 50 mM Tris pH 7.5, 30 °C.

Substrate in data set [8]: NC(=O)C1=CN([C@@H]2O[C@H](COP(=O)(O)OP(=O)(O)OC[C@H]3O[C@@H](n4cnc5c(N)ncnc54)[C@H](OP(=O)(O)O)[C@@H]3O)[C@@H](O)[C@H]2O)C=CC1
As to the kind of experiment: purified protein. Format: biochemical, Escherichia coli. Conditions: oxidase (uncoupling) reaction, 0.2 mM O2, no NAD(P)+, 50 mM Tris pH 7.5, 30 °C.

Data set [9] concerns the molecule itself. As to the kind of experiment: dynamic light scattering; purified SthA (>1 mg/ml) in a microcuvette, DynaPro Nanostar, 20 °C, three independent purification batches; oligomer size from the hydrodynamic radius.

SthA (UdhA), soluble pyridine nucleotide transhydrogenase (Escherichia coli, UniProt P27306, C45A), sequence (P27306 2-466 C45A): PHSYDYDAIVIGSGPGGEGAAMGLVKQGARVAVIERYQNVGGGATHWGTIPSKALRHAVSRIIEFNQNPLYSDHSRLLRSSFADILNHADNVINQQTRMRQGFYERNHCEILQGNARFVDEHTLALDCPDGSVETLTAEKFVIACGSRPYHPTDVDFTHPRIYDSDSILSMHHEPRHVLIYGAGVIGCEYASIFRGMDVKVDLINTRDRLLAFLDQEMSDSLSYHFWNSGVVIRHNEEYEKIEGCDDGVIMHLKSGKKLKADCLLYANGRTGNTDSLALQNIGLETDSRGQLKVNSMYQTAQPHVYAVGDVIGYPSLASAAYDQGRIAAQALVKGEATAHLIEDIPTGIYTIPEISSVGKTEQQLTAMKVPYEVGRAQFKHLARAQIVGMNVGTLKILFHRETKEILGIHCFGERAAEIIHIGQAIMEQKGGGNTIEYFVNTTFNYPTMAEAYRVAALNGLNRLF
SthA (UdhA), soluble pyridine nucleotide transhydrogenase (Escherichia coli, UniProt P27306, T50C), sequence (P27306 2-466 T50C): as the sequence (P27306 2-466 C45A) above, with A44C, T49C counted along it

Consider `NC(=S)c1ccc[n+]([C@@H]2O[C@H](COP(=O)(O)OP(=O)(O)OC[C@H]3O[C@@H](n4cnc5c(N)ncnc54)[C@H](OP(=O)(O)O)[C@@H]3O)[C@@H](O)[C@H]2O)c1` [thioNADP+], for which the “KI” value in [1] (10.0 mM NADH) was determined as 590 ± 260 µM.

Regarding `Nc1ncnc2c1ncn2[C@@H]1O[C@H](COP(=O)(O)OP(=O)(O)OP(=O)(O)O)[C@@H](O)[C@H]1O` [ATP], the “% activity at 5.0 mM” value in [2] is recorded as “all three adenine nucleotides increased the rate of thioNADPH formation”.

Consider `Cc1cc2nc3c(=O)[nH]c(=O)nc-3n(C[C@H](O)[C@H](O)[C@H](O)COP(=O)(O)OP(=O)(O)OC[C@H]3O[C@@H](n4cnc5c(N)ncnc54)[C@H](O)[C@@H]3O)c2cc1C` [FAD], for which the “absorbance spectrum of purified holoenzyme (A280/450)” value in data set [3] is on record as “absorbance spectrum of the purified protein indicated the presence of bound oxidized FAD”.

As to `NC(=O)C1=CN([C@@H]2O[C@H](COP(=O)(O)OP(=O)(O)OC[C@H]3O[C@@H](n4cnc5c(N)ncnc54)[C@H](O)[C@@H]3O)[C@@H](O)[C@H]2O)C=CC1` [NADH], the Kd in data set [4] was 227 ± 61 µM; in data set [5], 300 ± 100 µM; in data set [6], 88 ± 27 µM. Besides, the “KI” value in data set [1] (0.5 mM thioNADP+) is 12100 ± 2000 µM.

With `Nc1ncnc2c1ncn2[C@@H]1O[C@H](COP(=O)(O)O)[C@@H](O)[C@H]1O` [AMP], the “% activity at 5.0 mM” value in data set [2] was “all three adenine nucleotides increased the rate of thioNADPH formation”.

As for `Nc1ncnc2c1ncn2[C@@H]1O[C@H](COP(=O)(O)OP(=O)(O)O)[C@@H](O)[C@H]1O` [ADP], the “% activity at 5.0 mM” value in data set [2] is “ADP was the best reaction activator, followed by AMP and ATP, respectively”.

B1: SthA (UdhA), soluble pyridine nucleotide transhydrogenase (Escherichia coli K-12) (protein)
chain: PHSYDYDAIVIGSGPGGEGAAMGLVKQGARVAVIERYQNVGGGCTHWGTIPSKALRHAVSRIIEFNQNPLYSDHSRLLRSSFADILNHADNVINQQTRMRQGFYERNHCEILQGNARFVDEHTLALDCPDGSVETLTAEKFVIACGSRPYHPTDVDFTHPRIYDSDSILSMHHEPRHVLIYGAGVIGCEYASIFRGMDVKVDLINTRDRLLAFLDQEMSDSLSYHFWNSGVVIRHNEEYEKIEGCDDGVIMHLKSGKKLKADCLLYANGRTGNTDSLALQNIGLETDSRGQLKVNSMYQTAQPHVYAVGDVIGYPSLASAAYDQGRIAAQALVKGEATAHLIEDIPTGIYTIPEISSVGKTEQQLTAMKVPYEVGRAQFKHLARAQIVGMNVGTLKILFHRETKEILGIHCFGERAAEIIHIGQAIMEQKGGGNTIEYFVNTTFNYPTMAEAYRVAALNGLNRLF
As for B1, in “purified protein [7]”, the Km amounted to 120 ± 40 µM, the kcat is 15.3 ± 3.1 s⁻¹ and the kcat/Km came out at 128000 M⁻¹ s⁻¹. Moreover, in “purified protein [8]”, the Michaelis-Menten constant (Km) stood at 91.8 ± 30.5 µM, the kcat was 0.2 ± 0.03 s⁻¹ and the specificity constant (kcat/Km) was 2200 M⁻¹ s⁻¹.

B2: soluble pyridine nucleotide transhydrogenase SthA from Escherichia coli K-12 (enzyme, E. coli K-12, UniProt P27306 1-466, looked up)
chain: MPHSYDYDAIVIGSGPGGEGAAMGLVKQGARVAVIERYQNVGGGCTHWGTIPSKALRHAVSRIIEFNQNPLYSDHSRLLRSSFADILNHADNVINQQTRMRQGFYERNHCEILQGNARFVDEHTLALDCPDGSVETLTAEKFVIACGSRPYHPTDVDFTHPRIYDSDSILSMHHEPRHVLIYGAGVIGCEYASIFRGMDVKVDLINTRDRLLAFLDQEMSDSLSYHFWNSGVVIRHNEEYEKIEGCDDGVIMHLKSGKKLKADCLLYANGRTGNTDSLALQNIGLETDSRGQLKVNSMYQTAQPHVYAVGDVIGYPSLASAAYDQGRIAAQALVKGEATAHLIEDIPTGIYTIPEISSVGKTEQQLTAMKVPYEVGRAQFKHLARAQIVGMNVGTLKILFHRETKEILGIHCFGERAAEIIHIGQAIMEQKGGGNTIEYFVNTTFNYPTMAEAYRVAALNGLNRLF
notes: Soluble pyridine nucleotide transhydrogenase SthA (UdhA) of E. coli K-12; protomer with a calculated molar mass of around 54 kDa; No removal of the His tag is described; also called UdhA; soluble transhydrogenase
For the molecule B2, the “stoichiometry N” value in data set [9] was 8.

The record behind these values is PMC9460512, “A conserved sequence motif in the Escherichia coli soluble FAD-containing pyridine nucleotide transhydrogenase is important for reaction efficiency” (The Journal of Biological Chemistry, 2022).
